# From patent US5962487A, “Antipicornaviral compounds and methods for their use and preparation” (Agouron Pharmaceuticals, Inc., priority 1997, dated 1999)
# What was measured:
# HI-HeLa cells = test: in vitro; format: cell-based; conditions: human, 24 h
# Procedure: (§1) The ability of compounds to protect cells against CVA-21 or CVB-3 infection was measured by the XTT dye reduction method. Briefly, HI-HeLa cells were infected with CVA-21 or CVB-3 at a multiplicity of infection (m.o.i.) of 0.05 (CVA-21) and 0.08 (CVB-3) or mock-infected with medium only. Infected or uninfected cells were resuspended at 4×10^4 cells per mL and incubated with appropriate concentrations of drug. One day later, XTT/PMS was added to test plates, and the amount of formazan produced was quantified spectrophotometrically at 450/650 nm. The EC50 was calculated as the concentration of drug that increased the percentage of formazan production in drug-treated, virus-infected cells to 50% of that produced by drug-free, uninfected cells. The 50% cytotoxic dose (CC50) was calculated as the concentration of drug that decreased the percentage of formazan produced in drug-treated, uninfected cells to 50% of that produced in drug-free, uninfected cells. The therapeutic index (TI) was calculated by dividing the CC50 by the EC50.
# (§2) The Coxsackie strains A-21 (CVA-21) and B-3 (CVB-3) were purchased from American Type Culture Collection (ATCC). Virus stocks were propagated and antiviral assays were performed in HI-HeLa cells (ATCC). Cells were grown in Minimal Essential Medium with 10% fetal bovine serum.
# in vitro [1] = format: cell-based; conditions: human, hi-hela cells
# Procedure: as §1, §2
# CVB-3 = test: Anticoxsackieviral HI-HeLa Cell Culture Assay, CVB-3; format: cell-based, Coxsackie strain B-3; conditions: 24 h; CVB-3 infection of Hi-HeLa cells, XTT, one day
# Procedure: as §1, §2
# ECHO-11 = test: Echovirus-11 MRC5 Cell Culture Assay; format: cell-based, Echovirus strain 11; conditions: Echovirus, 24 h; ECHO-11 infection of MRC5 cells, XTT, one day
# Procedure: (§3) The Echovirus strain 11 (ECHO-11) and Enterovirus strain 70 (ENT-70) were purchased from American Type Culture Collection (ATCC). Virus stocks were propagated and antiviral assays were performed in MRC5 cells (ATCC). Cells were grown in Minimal Essential Medium with 10% fetal bovine serum.
# as §1, with “ECHO-11” for “CVA-21”, “ENT-70” for “CVB-3”, “MRC5” for “HI-HeLa”, “0.0013 (ECHO-11)” for “0.05 (CVA-21)”, “0.0017 (ENT-70)” for “0.08 (CVB-3)”, “2×10^4” for “4×10^4”
# CVA-21 = test: Anticoxsackieviral HI-HeLa Cell Culture Assay, CVA-21; format: cell-based, Coxsackie strain A-21; conditions: 24 h; CVA-21 infection of Hi-HeLa cells, XTT, one day
# Procedure: as §1, §2
# in vitro [2] = format: cell-based; conditions: human, hi-hela cells; remark: listed apart in the source
# Method in brief: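 HI-HeLa cells infected with HRV-14 at m.o.i. 0.13 or mock-infected, incubated with compounds for two days; XTT/PMS formazan read at 450/650 nm. EC50 as concentration restoring formazan to 50% of mock-infected level; CC50 from mock-infected cells; TI = CC50/EC50.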
# in vitro [3] = format: cell-based; conditions: human, mrc5 cells
# Procedure: as §3
# as §1, with “ECHO-11” for “CVA-21”, “ENT-70” for “CVB-3”, “MRC5” for “HI-HeLa”, “0.0013 (ECHO-11)” for “0.05 (CVA-21)”, “0.0017 (ENT-70)” for “0.08 (CVB-3)”, “2×10^4” for “4×10^4”
# MRC5 cells = test: in vitro; format: cell-based; conditions: human, mrc5 cells, 24 h
# Procedure: as §3
# as §1, with “ECHO-11” for “CVA-21”, “ENT-70” for “CVB-3”, “MRC5” for “HI-HeLa”, “0.0013 (ECHO-11)” for “0.05 (CVA-21)”, “0.0017 (ENT-70)” for “0.08 (CVB-3)”, “2×10^4” for “4×10^4”
# HRV-14 = test: Antirhinoviral HI-HeLa Cell Culture Assay (cell protection, XTT), HRV-14; format: cell-based, human rhinovirus
# Method in brief: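 HI-HeLa cells infected at m.o.i. 0.13 (or mock-infected), 8×10^5 cells/mL, incubated with compounds for two days; XTT/PMS formazan read at 450/650 nm. EC50 is the concentration restoring formazan in infected cells to 50% of compound-free mock-infected; CC50 is 50% decrease in mock-infected cells; TI = CC50/EC50.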
# ENT-70 = test: Enterovirus-70 MRC5 Cell Culture Assay; format: cell-based, Enterovirus strain 70; conditions: Enterovirus, 24 h; ENT-70 infection of MRC5 cells, XTT, one day
# Procedure: as §3
# as §1, with “ECHO-11” for “CVA-21”, “ENT-70” for “CVB-3”, “MRC5” for “HI-HeLa”, “0.0013 (ECHO-11)” for “0.05 (CVA-21)”, “0.0017 (ENT-70)” for “0.08 (CVB-3)”, “2×10^4” for “4×10^4”
smiles,measurement,setting,value
"Cc1cc(CCCCCOc2c(Cl)cc(C3=NCCO3)cc2Cl)on1 [WIN 54954, reference compound]",CC50,HI-HeLa cells,> 100 µM
same,CC50 at 24 h,in vitro [1],> 100 µM
same,EC50,CVB-3,> 100 µM
same,EC50,ECHO-11,> 100 µM
same,EC50,CVA-21,> 100 µM
same,CC50 at 48 h,in vitro [2],> 63 µM
same,CC50 at 24 h,in vitro [3],> 100 µM
same,CC50,MRC5 cells,> 100 µM
same,TI,"HRV-14; CC50/EC50, HRV serotype-14, 2880 min",> 30
same,EC50,"HRV-14; Rhinovirus B, HRV14, 48 h, HRV serotype-14 infected HI-HeLa cells, XTT, two days",2.13 µM
same,EC50,ENT-70,> 100 µM
